Assay results: patent publication US20060167109A1, “Methods of reducing rhinovirus contagion and related compositions” (priority 2002, published 2006)
“And” between values parts separate entries of the source, which are not always exact repeats. Equal values may be shown once.

Assays:
[1] = system: HRV serotype 11; test: HRV cytopathic effect assay; assay type: cell-based; settings: Human rhinovirus sp.
Procedure: (§1) For sensitivity testing to pleconaril, the appropriate cells were seeded into 96 well plates at a concentration of 4×10^4/well. After an overnight incubation at 37° C., the medium was removed and the cells were infected with 150 μL of a dilution of virus previously titrated to give ≧85% lysis of the monolayer after 3 days of incubation. The plates were incubated for 1 hour at the appropriate temperature and then overlaid with 50 μL of medium containing serial 2-fold dilutions of pleconaril in 2% DMSO. The final DMSO concentration in the assay was always 0.5%. No virus and no pleconaril controls were included on each plate. All drug concentrations were run in quadruplicate. The plates were then incubated for 3 days at the appropriate temperature followed by processing as described above.

[2] = system: HRV serotype 20; test: HRV cytopathic effect assay; assay type: cell-based; settings: Human rhinovirus sp.
Procedure: as §1

[3] = system: HRV serotype 23; test: HRV cytopathic effect assay; assay type: cell-based; settings: Human rhinovirus sp.
Procedure: as §1

[4] = system: HRV serotype 26; test: HRV cytopathic effect assay; assay type: cell-based; settings: Human rhinovirus sp.
Procedure: as §1

[5] = system: HRV serotype 37; test: HRV cytopathic effect assay; assay type: cell-based; settings: Human rhinovirus sp.
Procedure: as §1

[6] = system: HRV serotype 45; test: HRV cytopathic effect assay; assay type: cell-based; settings: Human rhinovirus sp.
Procedure: as §1

[7] = system: HRV serotype 61; test: HRV cytopathic effect assay; assay type: cell-based; settings: Human rhinovirus sp.
Procedure: as §1

[8] = system: HRV serotype 64; test: HRV cytopathic effect assay; assay type: cell-based; settings: Human rhinovirus sp.
Procedure: as §1

[9] = system: HRV serotype 74; test: HRV cytopathic effect assay; assay type: cell-based; settings: Human rhinovirus sp.
Procedure: as §1

[10] = system: HRV serotype 85; test: HRV cytopathic effect assay; assay type: cell-based; settings: Human rhinovirus sp.
Procedure: as §1

[11] = system: HRV serotype 94; test: HRV cytopathic effect assay; assay type: cell-based; settings: Human rhinovirus sp.
Procedure: as §1

[12] = system: HRV serotype 96; test: HRV cytopathic effect assay; assay type: cell-based; settings: Human rhinovirus sp.
Procedure: as §1

[13] = system: HRV3; test: RNA replication, viral RNA synthesis; assay type: cell-based, human rhinovirus; settings: 2 μM, pleconaril-treated cells
Procedure: Immediately after uncoating, viral gene expression (protein translation) and viral RNA replication begin. However, uncoating must occur before either of these two processes can be initiated. In experiments conducted similarly to the uncoating experiment described above, an experiment was conducted to measure viral RNA synthesis in the presence and absence of pleconaril. At the end of the 2 hours temperature shift, actinomycin D was added to the culture medium to inhibit cellular DNA-dependent RNA synthesis. After 2 hours in the presence of actinomycin D, no cellular RNA synthesis was detectable. At that time, ^3H-uridine was added to the medium and the incubation was allowed to proceed 2.5 hours (a total of 6.5 hours post-attachment). Total cellular RNA was then recovered, electrophoresed on an agarose-urea gel and visualized by fluorography.
HeLa cells in 6 well plates were infected at an MOI of 5 PFU/cell with 1 mL of HRV3 for 1 hour at room temperature in the presence or absence of 2 μM pleconaril. After virus attachment, the incubation was continued for an additional 2 hrs at 33° C. (HRV3). The inoculum was then removed and 3 mL/well of M199 medium with 5% FBS and 5 μg/mL of actinomycin D was added with 2 μM pleconaril or DMSO only (0.5% final concentration). The cells were returned to the incubator for 2 hours, at which time 300 μCi of ^3H-uridine (Amersham) was added per well. […]

[14] = Clinical pharmacokinetics: food effect, linearity, renal excretion; assay type: in vivo, human
Procedure: Pleconaril was administered with food in all Phase II and III clinical studies conducted by Applicants.
Pleconaril has a volume of distribution (Vz/F) that is consistent with significant tissue distribution despite the fact that pleconaril is highly bound (>99%) to plasma protein. Pleconaril is a low systemic clearance drug. Renal clearance contributes insignificantly to the systemic clearance of pleconaril. Less than 1% of the dose is excreted unchanged as pleconaril in urine.

[15] = Pleconaril concentration in nasal mucus, clinical studies 843-043 and 843-044; settings: diluted samples, individual subjects
Procedure: Two hundred (200) μl of acetonitrile was added to 200 μl of each nasal mucus standard and sample. The samples and standards were vortex mixed and then centrifuged at 25° C. for 10 minutes at 2500 rpm. 170 μl of supernatant was removed from each standard and sample. Then, 30 μl of water was added. The mixture was vortex mixed and 40 μl was injected for quantitative analysis of pleconaril.
Standards and samples were analyzed via LC/MS/MS. • Mass Spec: Micromass Quattro • LC: Alliance 2790 • Mobile Phase: 85% Acetonitrile/15% 2 mM Ammonium Acetate (0.2% formic acid) • Flow Rate: 0.5 ml/min • Analytical Column: Luna C18 (2) 5μ, 50×3.00 mm (Phenomenex) • Source: ESI (Electrospray Ionization) • Ion Mode: Positive • MRM transition: 382>82
The Masslyns quantitation package was used to analyze the results. The method used was a linear (1/× weighted) external standard method of calibration.
Studies 843-043 and 843-044 were Phase III clinical trials for the acute treatment of viral respiratory infection (common cold) in which pleconaril was administered for five days (400 mg TID). These samples were selected based on the plasma concentrations measured on Day 3 of 6 (plasma concentrations at or above 1 μg/ml).
Nasal mucus samples were diluted with 2 ml of transport media during processing and prior to quantitative analysis.

Work on `Cc1cc(CCCOc2c(C)cc(-c3noc(C(F)(F)F)n3)cc2C)on1` [pleconaril, 3-[3,5-dimethyl-4-[3-(3-methyl-5-isoxazolyl)propoxy]phenyl]-5-(trifluoromethyl)-1,2,4-oxadiazole] yielded an IC50 [1] of 150 ± 40 nM, an IC50 [2] of 60 nM and an IC50 [3] of 320 ± 10 nM. It also gave an IC50 [4] of 1600 ± 600 nM, an IC50 [5] of 60 ± 20 nM and an IC50 [6] of 4300 ± 1830 nM. For the same molecule, the IC50 [7] was 210 ± 80 nM, the IC50 [8] was 320 ± 240 nM and the IC50 [9] was 30 nM. The IC50 [10] was 50 ± 20 nM, the IC50 [11] was 1100 ± 440 nM and the IC50 [12] was 90 ± 50 nM. The “HRV3 RNA synthesis” value [13] was “completely blocked”, the “pharmacokinetic profile, dose dependence” value ([14]; plasma concentration range exceeding the proposed regimen by approximately 2-fold) was “dose proportional and linear” and the “dose excreted unchanged as pleconaril in urine” value ([14]; urine) was “Less than 1%”. The “increase of absorption when administered with food” value ([14]; with food) was 3-4 fold, the “Pleconaril Concentration (Nasal Mucus)” value ([15]; Study 43, Day 3, 400 mg TID for five days) was 26.36 ng/mL and 10.22 ng/mL and 2.46 ng/mL and 1.20 ng/mL and the “Pleconaril Concentration (Nasal Mucus)” value ([15]; Study 43, Day 6, 400 mg TID for five days) was “BQL and 2.21 ng/ml and 33.93 ng/ml and 79.38 ng/ml”. For the same molecule, the “Pleconaril Concentration (Nasal Mucus)” value ([15]; Study 44, Day 3, 400 mg TID for five days) was “BQL and 23.88 ng/ml and 2.51 ng/ml and 6.98 ng/ml”, the “Pleconaril Concentration (Nasal Mucus)” value ([15]; Study 44, Day 6, 400 mg TID for five days) was 1.77 ng/mL and 2.43 ng/mL and the concentration at 6 day ([15]; human, nasal mucus, oral, 400 mg TID, Pleconaril Concentration (Nasal Mucus), Study 44, Day 6, 400 mg TID for five days) was 1.68 ng/mL.
